US11576979B2, “Pyrrolobenzodiazepine prodrugs and antibody conjugates thereof” (GENENTECH, INC., priority 2016, dated 2023)
Like-named read-outs stand apart in the source and are kept apart here.

Legend:
WSU Cell line = assay: Cell viability, DTD-activated quinone prodrugs (Example 15); type: cell-based; details: WSU Cell line (low DTD); Table 10; read-out: IC50 Potency
Experimental: (§1) The toxicity of PBD dimer diaphorase prodrug 1, PBD monomer diaphorase prodrug 2, PBD dimer control 1 and PBD monomer control 1 were evaluated against KPL-4 and WSU cell lines for cell viability. The KPL-4 cell line is was a high DTD cell line characterized by NQO1 nRPKM of 839 and the WSU cell line was a low DTD cell line characterized by a NQO1 nRPKM of 1.36. The IC50 ratios are based on the prodrug IC50 value relative to the PBD dimer control.

KPL-4 Cell line = assay: as above; type: cell-based; details: KPL4; KPL-4 Cell line (high DTD); Table 10; read-out: IC50 Potency
Experimental: as §1

KPL-4 = assay: CELLTITER GLO cell proliferation assay (Example 6); type: cell-based; details: data in parenthesis = repeat evaluations, read-out: IC50 potency KPL-4
How it was run: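 Cells seeded at about 8000 (WSU-DLCL2) or 4000 (KPL-4) per well in RPMI-1640 with 10% FBS, 2 mM glutamine, 50 uM cystine and 0.015 g/L L-methionine; 10-point 1:3 dose-response in triplicate, cultured at 37° C., 5% CO2. Viability read by CellTiter-Glo luminescence, normalized to no-compound minus no-cell controls.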

[1] = test system: double strand DNA Oligos 1 and 2; assay: DNA oligo binding, LC/MS/UV; details: 100 uM compound, 100 uM DNA, 1 hour, 37 C
Igrov-1 = assay: CellTiter-Glo toxicity, 4 days (Example 9); type: cell-based; details: Homo sapiens, IGROV-1, 96 h, 4 days of drug incubation; Table 7A
How it was run: (§2)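 Cells were seeded in 384-well plates, dosed 24 h later and incubated with drug for 4 days. Viability was read as ATP luminescence by CellTiter-Glo and normalised to untreated controls. IC50 is the concentration giving 50% of maximum cell killing.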

UACC-257 = assay: CellTiter-Glo toxicity, 4 days (Example 9); type: cell-based; details: Homo sapiens, UACC-257, 96 h, 4 days of drug incubation; Table 7A
How it was run: as §2

A2058 = assay: CellTiter-Glo toxicity, 4 days (Example 9); type: cell-based; details: Homo sapiens, A2058, 96 h, 4 days of drug incubation; Table 7A
How it was run: as §2

SK-BR-3 = assay: CellTiter-Glo toxicity, 3 days (Example 7); type: cell-based; details: Homo sapiens, SK-BR-3, 72 h; 3 days; read-out: SK-BR-3 IC50
Experimental: The toxicity of PBD monomer disulfide prodrugs 1 to 4, PBD dimer disulfide prodrugs 1 and 4, PBD monomer control 1 and PBD dimer control 1 were evaluated against SK-BR-3 cell cultures. […] The HER2-positive breast cancer cell line, SK-BR-3, was obtained internally at Genentech after having been verified by sequence analysis. The cells were grown at 37 Celsius in DMEM+10% FBS supplemented with 2 mM L-glutamine for the duration of this assay. On the first day of the experiment, designated “Day −1”, SK-BR-3 cells were harvested from tissue culture flasks, counted, and then seeded into 96-well plates at a concentration of 7,500 cells per well. The next day, designated “Day 0”, cell culture media was removed from the cells and replaced with 100 uL of fresh media containing a serial dilution (1:3) of the compounds in Table 5 below. The plates were then returned to the 37 Celsius incubator and allowed to incubate for 3 days. On “Day 3” of the assay, the plates were removed from the incubator and allowed to equilibrate to room temperature before adding 100 uL of room-temperature CellTiter-Glo reagent (Promega). The plates were then agitated at 300 rpm for 10 minutes. The luminescence signal generated from this reaction was recorded on an Envision plate reader (Perkin-Elmer). The data were arranged in Excel (Microsoft) and graphed in Kaleidagraph (Synergy Software).

C=C1C[C@H]2C=Nc3cc(OC)c(OC)cc3C(=O)N2C1 [PBD monomer control 1, reference compound]
IC50 (WSU Cell line): 106 nM | IC50 (KPL-4 Cell line): 330 nM | IC50 (KPL-4; KPL4, Table 4): 330 nM | IC50 (KPL-4; Table 4): 241 nM | % DNA oligo remaining [1]: 35% | IC50 (Igrov-1): 68.5 nM | IC50 (UACC-257): 181 nM | IC50 (A2058): 56.9 nM | IC50 (SK-BR-3): 124 nM
